{
  "source": "patent US5595756A",
  "about": "“Liposomal compositions for enhanced retention of bioactive agents” (Inex Pharmaceuticals Corporation, priority 1993, dated 1997)",
  "key": {"[1]": {"assay": "Drug induced weight change in P388-bearing mice (% wt change on day 7)", "format": "in vivo, BDF1 mice", "conditions": "i.v.", "description": "Animal weights and mortality were monitored daily."}, "[2]": {"system": "P388 lymphocytic leukemia", "assay": "P388 antitumor activity (murine lymphocytic leukemia model), free and liposomal vincristine i.v.", "conditions": "for Median Survival / 60-day Survival: i.v.; for Median Survival: saline control 10.0; for 60-day Survival: survivors/total; for % ILS (increase in life span): from median survival, treated vs saline control", "procedure": "The antitumor effects of liposomal vincristine were monitored using the P388 lymphocytic leukemia model. BDF1 mice (5 per group) were injected i.p. with 1×10^6 P388 cells. The indicated doses of saline or liposomal vincristine were administered (i.v.) 24 h after tumor inoculation. Animal weights and mortality were monitored daily. Mean and median survival times as well as the statistical significance of the results were determined using the Mann-Whitney-Wilcoxon procedure.\nMurine P388 antitumor activity of the DSPC/Chol/GM1 pH 2 liposomal vincristine preparation was compared to free drug and DSPC/Chol pH 4 liposomal vincristine (Table I below)."}, "[3]": {"conditions": "drug dose 1.0 mg/kg, lipid dose 10 mg/kg"}, "[4]": {"conditions": "drug dose 2.0 mg/kg, lipid dose 20 mg/kg"}, "[5]": {"conditions": "drug dose 3.0 mg/kg, lipid dose 30 mg/kg"}},
  "data": [
    {"smiles": "CC[C@]1(O)C[C@H]2CN(CCc3c([nH]c4ccccc34)[C@@](C(=O)OC)(c3cc4c(cc3OC)N(C=O)[C@H]3[C@@](O)(C(=O)OC)[C@H](OC(C)=O)[C@]5(CC)C=CCN6CC[C@]43[C@@H]65)C2)C1", "note": "[Free Vincristine]", "values": [
      {"measurement": "% wt change on day 7", "setting": "[1]; [3]", "result": "+1.9%"},
      {"measurement": "% wt change on day 7", "setting": "[1]; [4]", "result": "+0.5%"},
      {"measurement": "% wt change on day 7", "setting": "[1]; [5]", "result": -13.4, "unit": "%"},
      {"measurement": "Median Survival", "setting": "[2]; [3]", "result": 14.0, "unit": "days"},
      {"measurement": "60-day Survival", "setting": "[2]; [3]", "result": "0/5"},
      {"measurement": "% ILS (increase in life span)", "setting": "[2]; drug dose 1.0 mg/kg", "result": 40, "unit": "%"},
      {"measurement": "Median Survival", "setting": "[2]; [4]", "result": 15.0, "unit": "days"},
      {"measurement": "60-day Survival", "setting": "[2]; [4]", "result": "0/5"},
      {"measurement": "% ILS (increase in life span)", "setting": "[2]; drug dose 2.0 mg/kg", "result": 50, "unit": "%"},
      {"measurement": "Median Survival", "setting": "[2]; [5]", "result": 16.0, "unit": "days"},
      {"measurement": "60-day Survival", "setting": "[2]; [5]", "result": "0/5"},
      {"measurement": "% ILS (increase in life span)", "setting": "[2]; drug dose 3.0 mg/kg", "result": 60, "unit": "%"},
      {"measurement": "long-term survivors", "setting": "[2]; long-term = >70 days", "result": "No long-term survivors"}
    ]}
  ]
}
